This is an account of results in patent US6319910A, “Method for inhibiting cyclooxygenase-2 and tumor necrosis factor alpha” (Hospital for Joint Diseases, priority 1998, dated 2001).

What is called inhibition is the percentage by which the read-out fell short of the control.

One test has as its system COX-2. Kind of test: COX-2 expression in cells/cartilage (general statement). In kind it is cell-based. Conditions: words.
Test [1] concerns OA-affected cartilage. Kind of test: Spontaneous PGE2 release by OA-affected cartilage (ex vivo organ culture). Type of test: cell-based, human. Conditions: for Effect on PGE2 production: human OA-affected cartilage, words. On the procedure: (§1) Human osteoarthritis affected cartilage spontaneously release nitric oxide (NO) and PGE2 in the medium as previously reported (Amin et al, 1995a; 1997a). The OA-organ cultures were set up as described (Amin et al, 1995a; 1997a). Briefly, total knee articular cartilage from tibial plateau and femoral condyle were harvested from OA-affected patients. The cartilage was mixed and cut into 3-mm discs and 4-6 discs were placed in triplicate or quadruplicate, in a 24-well plate in 2.0 ml of Ham's F-12 medium supplemented with 0.2% endotoxin free human albumin, 10 mM Hepes pH 7.4 and antibiotics in the presence of various modulators, as previously described (Amin et al, 1995a; 1997a). CMT-8 was used at pharmacologically relevant concentrations in DMSO (<0.01% final concentration) as carrier. An equivalent amount of DMSO was also added in the control cultures.
(§2) The p value between control and CMT-8 treated values for PGE2≤0.1 (insignificant) whereas the p values between NMMA treated cartilage and CMT-8 treated cartilage was ≤0.001 (significant). The data are represented as mean±SD as examined by T test when n=3. Data represent±SD value as determined by Student's t test n=4. The P values described are compared with control unstimulated OA-cartilage. The data represents one of the two similar experiments. P values for PGE2 and Nitrite=^a≤0.5; ^b≤0.1; ^c≤0.05; ^d≤0.01.

In test [2] the test system is OA-affected cartilage. Kind of test: Spontaneous nitrite/nitric oxide release by OA-affected cartilage (ex vivo organ culture). Type of test: cell-based, human. On the procedure:
as §1, §2

In test [3] the test system is RAW 264.7 cells. Briefly: Nitrite (NO) production/accumulation in LPS-stimulated RAW 264.7 cells. Conditions: LPS 100 ng/ml, minocycline 40 μg/ml, 16 hours; for inhibition at 40 µg/mL: Mus musculus, RAW264.7, 16 h. In kind it is cell-based, murine. On the procedure: (§3) Murine macrophages (RAW 263.7 cells) which were grown in Dulbecco's modified eagle medium (DMEM) containing 10% fetal bovine serum, 2 mM glutamine, 50 U/ml penicillin and 50 μg/ml streptomycin, were stimulated with 100 ng/ml LPS to induce both NOS and COX-2 at 16 hr. […] The data presented in FIG. 1 represents mean±SD as examined by T test were n=3.
(§4) The effects of CMTs 1, 2, 3, 5 and 8 on PGE2 and NO accumulation in RAW 264.7 cells were further evaluated as described above for CMT-3. […]

The test system of a further test is arthritis. Conditions: mild and moderate arthritis; Tilley et al, 1995; words; cited from earlier work.
For a further test, the system named is TNFα. Briefly: TNFα release in the medium by HEK 293 cells permanently transfected with human proTNFα (ELISA). Type of test: cell-based. Conditions: FIG. 8; 16 hours; words. On the procedure:
HEK 293 cells were transfected with the proTNFα cDNA (wild) to prepare a stable cell line. […] A mutant form of proTNFα cDNA which could not be cleaved by the endogenous TNFα convertase (TACE) to release soluble TNFα was also transfected in separate human HEK 293 cells. The soluble TNFα was estimated by ELISA from the wild type and mutant transfected cells from the medium (FIG. 6).
HEK 293 cells were grown as previously described by American Type Culture Collection (ATCC). […] The HEK 293 cells were incubated with CMT-3 to examine the effects of CMT-3 on TNFα release in the medium.
HEK 293 cells were grown under the conditions previously described by ATCC. Various compounds, including CMT-3 and doxycycline/minocyclines were incubated with proTNFα transfected HEK 293 cells releasing TNFα in the medium at 16 hours. […] Soluble TNFα was estimated by ELISA from the medium.

The test system of test [4] is RAW 264.7 cells. Briefly: PGE2 production/accumulation in LPS-stimulated RAW 264.7 cells. Type of test: cell-based, murine. Conditions: LPS 100 ng/ml, minocycline 40 μg/ml; for PGE2 accumulation: 16 hours; for activation at 40 µg/mL: Mus musculus, RAW264.7, 16 h, printed in parentheses = increase. On the procedure: as §3, §4

“Also recorded” adds a separate entry of the source. Like-named read-outs stand apart in the source and are kept apart here.

Regarding `CN(C)c1ccc(O)c2c1C[C@H]1C[C@H]3[C@H](N(C)C)C(O)=C(C(N)=O)C(=O)[C@@]3(O)C(O)=C1C2=O` [Minocycline, minocycline, reference compound], in the test with COX-2, the “Effect on COX-2 expression” value is “up-regulate COX-2 expression and PGE2 production”. The compound also registered a PGE2 with OA-affected cartilage [1] (Table 2, minocycline 10 μg/ml) of 314.6 ± 58.4 ng/mL. In addition, the “Effect on PGE2 production” value with OA-affected cartilage [1] is “stimulates PGE2 production”; in the test on OA-affected cartilage [1] (listed as minocycline) it was “up-regulate COX-2 expression and PGE2 production”. In the test on OA-affected cartilage [2] (Homo sapiens, Table 2, minocycline 10 μg/ml), this compound displayed an inhibition at 10 µg/mL of 30%. Besides, the Nitrite in the test on OA-affected cartilage [2] (Table 2, minocycline 10 μg/ml) worked out at 66.0 ± 17.0 µM; in the test with RAW 264.7 cells [3] (Experiment I), 4.8 µM; with RAW 264.7 cells [3] (Experiment II), 12.9 µM. Besides, the “Effect on NO production” value with OA-affected cartilage [2] (human OA-affected cartilage, words, listed as minocycline) was “suppresses NO production; also recorded: inhibit NO production”. Besides, the inhibition at 40 µg/mL in the test with RAW 264.7 cells [3] (read-out: Nitrite % Inhibition, Experiment I) was found to be 90%; in the test with RAW 264.7 cells [3] (read-out: Nitrite % Inhibition, Experiment II), 41%. For the same compound, in the test with arthritis, the “Safety and efficacy in arthritis” value is “safe and effective for patients with mild and moderate arthritis”. In addition, in the test on TNFα, the “Effect on spontaneous TNFα release” value was “inhibit TNFα release”. The PGE2 accumulation worked out at 43.7 ± 8.6 ng/mL in the test with RAW 264.7 cells [4] (Experiment I) and 49.1 ± 10.0 ng/mL in the test with RAW 264.7 cells [4] (Experiment II). The activation at 40 µg/mL is 172% in the test with RAW 264.7 cells [4] (read-out: PGE2 % (Increase), Experiment I) and 257% in the test with RAW 264.7 cells [4] (read-out: PGE2 % (Increase), Experiment II).
